From patent US20210355509A1, “ALTERNATIVE SPLICING REGULATION OF GENE EXPRESSION AND THERAPEUTIC METHODS” (THE CHILDREN'S HOSPITAL OF PHILADELPHIA, priority 2018, published 2021)

Columns and labels:
SMN2 exon 7 [1] = assay: SMN2/transactivator minigene exon 7 splicing, semi-quantitative RT-PCR; assay type: cell-based, human
Excerpt: FIGS. 4a-c show modified SMN2/transactivator minigenes express spliced RNA transcript isoforms to constitutively exclude (CSI3) or include (CSI5) exon7, influencing background expression of the optimized RNAi promoter. […] The 3′ and 5′ Exon7 splicing sites in the SMN2/transactivator minigene were modified to constitutively exclude (CSI3, 3′ modified) or include (CSI5, 5′ modified) exon 7.
FIGS. 5a-b show splicing and activity of CSI and CSI3 minigenes in response to LIM070.
To regulate transactivator expression, the transactivator was cloned downstream of a self-cleaving 2A peptide and the SMN2 minigene comprising exons 6-7 and the 5′ end of exon 8, and minimal intronic intervening sequences necessary to recapitulate SMN2 splicing^38 (FIG. 4a). Note that 10% of the transcripts include exon 7, similar to the native SMN2 genetic state. The transcripts produce transactivator that partially activates the RNAi expression cassette. Thus, the 3′ and 5′ Exon7 splicing sites in the SMN2/transactivator minigene were modified to constitutively exclude (CSI3, 3′ modified) or include (CSI5, 5′ modified) exon 7, which minimizes RNAi promoter background activation^39 (FIGS. 4b-c). […] Also, the entire cassette fits into rAAV.

HEK293 cells = assay: De novo exon splicing in response to LMI070, RNA-seq and PCR validation; assay type: cell-based, human; conditions: LMI070 25 nM, PCR
Experimental: The following methods were used to obtain the data illustrated in FIGS. 8-15. […] 12 hours after treatment RNA was extracted using Trizol followed by DNAseI treatment. Samples were evaluated for quality control on agilent bioanalyzer and all samples had RIN values >9.8 and were sent for Illumina RiboZero Gold total RNA library preparation and sequencing with an Illumina HiSeq4000. A 150 bp Pair end sequencing reads were obtained from illumina sequencing. Fastq files obtained from the illumina platform were aligned to the Human genome GRCh38 using the STAR aligner. SAM format alignment files output from STAR were sorted, converted to BAM format and indexed using Samtools. To visualize splicing at any region in the alignment BAM files were opened in IGV and visualized using the Sashimi plot function.
To identify regions of interest which contained high levels of differential splicing a custom R program was created. […] These files contained the raw counts obtained at each splice junction as calculated during alignment by STAR. […] 1) Read input files into R. 2) Create unique position IDs for each row (splice site) in the dataset. […] 6) sort the extracted reads from highest to lowest by Mean counts value. […]
The following methods were used to obtain the data in FIG. 16. […] As observed on the PCR, PCR products of higher size were detected on samples treated with LM1070 (FIG. 16). […]

[2] = LMI070 pharmacokinetics in mice, oral; assay type: in vivo; conditions: 3 mg/Kg
[3] = mice, oral, 3 mg/Kg, serum; read-out: Cmax (maximum concentration); cited from earlier work
SMN mouse model = conditions: cited from earlier work
SMN2 exon 7 [4] = conditions: mouse brain; cited from earlier work
SMN2 minigene Exon 7 = assay: SMN2 minigene PCR splicing assay with RG7800; assay type: cell-based, human; conditions: RG7800 10 nM, 100 nM, 1 μM and 10 μM; HEK293
Experimental: HEK293 cells were transfected with plasmids expressing the SMN2 minigene (0.3 μg) and 4 hours later treated with different doses of RG7800 (10 nM, 100 nM, 1 μM and 10 μM). 24 hours after transfection, RNA was harvested, DNAseI treated, and 1 μg of RNA was reverse transcribed to assess SMN2 minigene splicing using PCR. PCR products were separated on a 3% agarose gel and exon 7 production was quantified using the ChemiDoc Imaging System (Bio-Rad) and Imagine Lab analysis Software.

HTT = assay: SMN2_CRISPRi regulated epigenetic silencing, Western blot; assay type: cell-based, human; conditions: RG7800 1 μM, HEK293 cells transfected with the SMN2_CRISPRi system
Experimental: (§1) HEK293 cells were transfected with plasmids encoding the CRISPRi silencing system (dCas9, sgRNA and MCP-Krab expression cassettes). Importantly, the dCas9 was cloned under the SMN2 splice regulated cassette to control dCas9 protein expression with RG7800. 24 hours after transfection, cells were selected using Puromicin (3 μM, 24 h), passaged onto a new plate, and treated with RG7800 (1 μM). HEK293 cells were lysed 36 h after RG7800 treatment using Passive lysis buffer (Promega, CA), and Huntingtin (HTT), Cas9 and Beta Catenin (Beta cat) protein levels were determined by Western Blot. Beta Catenin protein levels were determined as loading control. HTT, Cas9 and Beta Cat protein levels were quantified using the ChemiDoc Imaging System (Bio-Rad) and Imagine Lab analysis Software.

Cas9 = assay: SMN2_CRISPRi regulated Cas9 expression, Western blot; assay type: cell-based, human; conditions: RG7800 1 μM, HEK293 cells transfected with the SMN2_CRISPRi system
Experimental: as §1

SMILES	exon 7 inclusion at brain-equivalent concentration (SMN2 exon 7 [1]; 120 nM, CSI and CSI3 minigenes (FIG. 5))	exon 7 inclusion in response to LMI070 (SMN2 exon 7 [1]; HEK293 cells, CSI and CSI3 minigenes, 20 h after LMI070 treatment)	de novo exon splicing (HEK293 cells)	concentration in the brain [2] [nM]	Cmax [3] [nM]	minimal dose with therapeutic effects (SMN mouse model) [mg/kg]	maximum dose reported to increase SMN2 exon 7 inclusion (SMN2 exon 7 [4]) [mg/kg]	Exon 7 inclusion in the SMN2 minigene (SMN2 minigene Exon 7)	HTT expression levels reduced (HTT)	Cas9 protein levels (Cas9)
CC1(C)CC(Oc2ccc(-c3ccc(-c4cn[nH]c4)cc3O)nn2)CC(C)(C)N1 [LMI070]	induces exon 7 inclusion	dose-responsive	novel exons are included	120	86	1	30			
CCc1nc(C)cn2nc(-c3cc(=O)n4cc(C5CCN(C)CC5)cc(C)c4n3)cc12 [RG7800]								induction of Exon 7 inclusion	about 45%	increase
